From patent publication US11820792B2, “Cancer treatment” (Imperial College Innovations Limited, priority 2017, dated 2023)

Experiments:
UW228 cells = test: TNFα and cisplatin combination, sulphorodamine B viability; type: cell-based, human; details: stably transduced UW228, 1 μM and 5 μM cisplatin
Method: Cell viability was measured at different time points using sulphorodamine B assay. Stably transduced UW228 were treated with 1 μM and 5 μM cisplatin chemotherapy 48 hrs after seeding the cells. Data are represented as mean±SEM.***P≤0.001.

DIPG = details: 2 children, both died after treatment; cited from earlier work
[1] = system: recurrent human malignant glioma; details: cited from earlier work
[2] = systemic administration, clinical trials; cited from earlier work

N.N.[Cl][Pt][Cl] [cisplatin]
effect of combination on tmTNFα cytokine gene therapy (cell viability) (UW228 cells): increases

CC[C@@]1(O)C(=O)OCc2c1cc1n(c2=O)Cc2cc3c(CN(C)C)c(O)ccc3nc2-1 [topotecan]
tumour response (DIPG): reduction in tumour size

IL-4: Interleukin-4 protein injected intratumorally by convection enhanced delivery
neurotoxicity to normal brain ([1]; histology, any patient): No histological evidence of neurotoxicity | patients showing glioma necrosis ([1]; intratumoral, CED): Six of nine | disease free time after the procedure ([1]; one patient): > 18 months | systemic toxicity ([1]; treated patients): no drug-related systemic toxicity

rhIL-15: Recombinant human IL-15 cytokine given systemically in clinical trials
plasma half-life [2]: < 1 h
